Experimental findings from patent US9060993B2, “Compositions and methods for treating cancer” (The Trustees of the University of Pennsylvania, priority 2003, dated 2015) are described below.

The test system of test [1] is FL5.12 cells. The test is described as follows: Cell proliferation and survival of IL-3 stimulated FL5.12 cells in culture. It is filed as cell-based. On the procedure: As a result, we have investigated the ability of hydroxycitrate to inhibit the proliferative response of FL5.12 cells stimulated by interleukin-3. […] The IC50 of this effect approximates the efficacy of hydroxycitrate in inhibiting ACL-dependent fatty acid synthesis as reported by others (Pearce et al. 1998).
(§1) When 3-carbox-11-(2,4-dichlorophenyl)-3,5dihydroxyundecanoic acid (see FIG. 4 for structures) is added to mitogen stimulated cell extracts with an IC50 of approximately 3 μM and when cells were treated with a γ-lactone derivative that is cell permeant, the cell proliferation was inhibited at approximately a 10 μM concentration and both cell proliferation and cell survival were inhibited at 30 μM concentrations (FIG. 6).

For test [2], the target named is T1, ATP citrate lyase (Mus musculus, UniProt Q91V92).
T1 construct: is added to mitogen stimulated cell extracts with an IC50 of approximately 3 μM; endogenous in cells; host or cells: IL-3-dependent cell line (FL5.12), mitogen-stimulated; cytosolic extract
T1 sequence (Q91V92 1-1091): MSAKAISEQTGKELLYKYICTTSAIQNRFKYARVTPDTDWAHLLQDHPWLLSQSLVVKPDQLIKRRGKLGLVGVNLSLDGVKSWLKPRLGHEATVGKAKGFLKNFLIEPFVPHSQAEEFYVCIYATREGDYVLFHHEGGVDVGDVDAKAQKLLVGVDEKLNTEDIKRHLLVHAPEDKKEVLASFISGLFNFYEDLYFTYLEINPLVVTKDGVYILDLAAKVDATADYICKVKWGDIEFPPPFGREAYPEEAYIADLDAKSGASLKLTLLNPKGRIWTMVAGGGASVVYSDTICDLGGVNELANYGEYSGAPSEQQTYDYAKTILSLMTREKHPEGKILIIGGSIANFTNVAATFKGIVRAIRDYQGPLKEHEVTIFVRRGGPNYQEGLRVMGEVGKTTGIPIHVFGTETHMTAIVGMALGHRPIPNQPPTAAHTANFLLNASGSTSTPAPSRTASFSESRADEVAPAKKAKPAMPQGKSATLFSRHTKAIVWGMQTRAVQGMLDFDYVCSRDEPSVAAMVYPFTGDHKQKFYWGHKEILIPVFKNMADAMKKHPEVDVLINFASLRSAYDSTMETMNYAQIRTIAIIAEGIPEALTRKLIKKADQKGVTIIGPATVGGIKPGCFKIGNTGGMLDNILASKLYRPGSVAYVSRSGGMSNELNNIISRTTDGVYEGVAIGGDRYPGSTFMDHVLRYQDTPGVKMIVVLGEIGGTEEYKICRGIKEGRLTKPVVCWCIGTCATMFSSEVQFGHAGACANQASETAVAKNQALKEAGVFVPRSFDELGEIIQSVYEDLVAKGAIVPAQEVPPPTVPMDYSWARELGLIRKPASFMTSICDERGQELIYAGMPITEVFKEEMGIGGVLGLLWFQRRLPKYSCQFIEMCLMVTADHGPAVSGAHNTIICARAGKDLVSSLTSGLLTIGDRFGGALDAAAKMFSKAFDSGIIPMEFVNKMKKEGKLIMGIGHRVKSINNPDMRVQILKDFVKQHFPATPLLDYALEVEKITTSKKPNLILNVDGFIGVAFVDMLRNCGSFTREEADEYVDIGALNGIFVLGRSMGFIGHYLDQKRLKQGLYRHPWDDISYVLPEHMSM
Nature of the test: ATP citrate lyase activity in cellular extracts (malate dehydrogenase coupled, NADH consumption at 340 nm). It is filed as biochemical. The following applies: mitogen stimulated cell extracts.
Experimental: To investigate the potential induction of ATP citrate lyase in response to mitogen stimulation of cell proliferation, an assay was developed to quantitate ATP citrate lyase (ACL) activity in cellular extracts. As a positive control, stable transfectants of a cell line dependent on IL-3 for the induction of cell proliferation was also produced. The cytosolic extracts from the wild type cells and ATP citrate lyase transfected cells were analyzed by determining the level of ATP citrate lyase activity per 10^6 cells as determined by the malate dehydrogenase catalyzed reduction of oxaloacetate by NADH. NADH consumption was measured by monitoring the reaction at 340 nm. Assays were run by providing citrate at 100 μM in the presence of 5 mM ATP and 300 μM of CoA.

Test [3] deals with mitogen-stimulated cells and proliferating transformed cell cultures. Nature of the test: Cell cycle analysis of mitogen-stimulated cells and proliferating transformed cell cultures. It is filed as cell-based. The following applies: 30 μM; FIG. 8. The method, then: as §1
For test [4], the system named is Bax/Bak-deficient, IL-3-dependent cell lines. Nature of the test: Mitogen-induced cell growth of Bax/Bak-deficient, IL-3-dependent cell lines. It is filed as cell-based, mice. The following applies: 30 μM, resting cells treated with IL-3; FIG. 14.
Test [5] concerns cells transfected with the oncogene Bcl-xL. The test is described as follows: Proliferation and cell death of Bcl-xL-transfected cells in presence or absence of the mitogen IL-3. Conditions: 30 μM, FIG. 11. It is filed as cell-based.
The subject of test [6] is hematopoietic IL3-dependent cell lines. The test is described as follows: In vitro apoptosis assay (Annexin V / propidium iodide flow cytometry). Conditions: 30 μM; FIG. 9. It is filed as cell-based. The method, then: Remove 500 μl of treated or untreated cells (at concentrations of 0.5-1×10^6 cells/ml) to a FACS tube and add 50 μl of 10× Annexin V binding buffer (BD Biosciences Pharmingen, San Diego, Calif.) to each tube. Stain cells with Annexin V-FITC (BD Biosciences Phanningen, San Diego, Calif. ) using 4 μl Annexin V-FITC and propidium iodide (Molecular Probes, Eugene, Oreg.) at a final concentration of 3 μg/ml of cells. The cells are preferably hematopoietic IL3-dependent cell lines such as for example IL3-dependent FL5.12 pro-B cells transfected with different transgenes (Bcl-xL, myrAkt) or vector control plasmids and IL3-dependent cells isolated from the bone marrow of Bax−/−Bak−/− knockout mice. Incubate at 37° for 30 minutes. Perform flow cytometry. Early apoptotic cells are Annexin V positive, propidium iodide negative while late apoptotic cells are both Annexin V and propidium iodide positive.
as §1
In general terms: In flow cytometry, cells or beads pass a laser one at a time.

pIC50: −log10 of the molar value.

In the case of `O=C(O)CC(O)(C(=O)O)C(O)C(=O)O` (centres unmarked) [hydroxycitrate], the “overall cell number and viability of cells in culture” value in test [1] (added to IL-3-containing cultures of FL5.12, FIG. 3) is “progressive decline in the overall cell number and viability”.
For orientation: pIC50 means the negative decadic logarithm of the IC50, by convention in mol/L. A low value points to a large IC50. With `O=C(O)CC(O)(CC(O)CCCCCCc1ccc(Cl)cc1Cl)C(=O)O` (centres unmarked) [3-carbox-11-(2,4-dichlorophenyl)-3,5dihydroxyundecanoic acid], in test [2], the pIC50 was around 5.52.
As to `O=C(O)C[C@@]1(O)C[C@@H](CCCCCCc2ccc(Cl)cc2Cl)OC1=O` [γ-lactone derivative], the “concentration at which both cell proliferation and cell survival were inhibited” value in test [1] (FIG. 6) amounted to 30 µM. Besides, in test [1] (cells treated with cell permeant γ-lactone, FIG. 6), the “concentration at which cell proliferation was inhibited” value was around 10 µM. Besides, the “inhibition of cell proliferation in each independent cell clone” value in test [1] (immortalized hematopoietic cells, independent clones, doses between 10 and 30 μM, FIG. 7) is reported as “approximately 50%”. Further, the cell cycle effect result in test [3] is “G1 arrest”. Also, the mitogen-induced cell growth entry in test [4] is on record as “nearly completely inhibited”. In test [5] (in presence of IL-3), the cell death entry is listed as “induction of apoptotic cell death” and the mitogen-induced cell proliferation result is given as “near complete inhibition”. Moreover, in test [5] (nongrowing cells (IL-3 withdrawal)), the “toxicity in nongrowing cells” value is “relatively nontoxic”. Moreover, in test [6], the “annexin-V positivity (induction of apoptosis)” value is “rapid induction of the annexin-V positivity”.
